In patent publication US12390441B2, “Immunomodulating o-het/aryl azalides” (Zoetis Services LLC, priority 2020, dated 2025):
pIC50: −log10 of the molar value.

What was measured:
Assay in all cases: Whole blood assay, LPS stimulation, MSD cytokine detection
TNF-α = format: cell-based; conditions: fresh whole bovine blood
Protocol: (§1) Compounds of the invention were evaluated against a positive control for their ability to inhibit LPS-induced IL-1p and TNF-α as an overall evaluation of relative potency and modulation of target pathways.
(§2) In the bovine whole blood in vitro screening assay the inhibition of TNFα as induced by stimulation by lipopolysaccharide (LPS) and as measured by half the maximal inhibitory concentration (IC50) is recognized as the primary biomarker of immunomodulation potency upon pretreatment with the compounds of the invention. IL-1β is a mediator of the inflammation response and is involved in a number of cellular activities including proliferation, differentiation and apoptosis. IL-1β is also released upon cellular stress or cytotoxicity or upon TLR stimulation. In the bovine whole blood assay the stimulation of IL-1β release upon increasing concentration of test compound is seen as a potential cellular toxicity signal as induced by the test compound. In order to estimate a therapeutic index from the in vitro assay a differential between the TNFα IC50 (immunomodulation potency) versus the perceived cellular toxicity concentration (IL-1β release or overstimulation) was utilized. […] As the in vitro assay index approaches 1 it is proposed that the balance between immunomodulation and cytotoxicity would be too narrow in order to achieve an efficacious dose in vivo.

IL-1β = format: cell-based, bovine; conditions: fresh whole bovine blood, LPS stimulation; drug concentration giving overstimulation (OS) of IL-1β
Protocol: as §1, §2

IL-6 = format: cell-based; conditions: fresh whole bovine blood

SMILES	pIC50 (TNF-α)	IL-1ß OS of LPS (IL-1β) [µM]	pIC50 (IL-6)
CC[C@H]1OC(=O)[C@H](C)[C@@H](O[C@H]2C[C@@](C)(OC)[C@](O)(CNCCOC)[C@H](C)O2)[C@H](C)[C@@H](O[C@@H]2O[C@H](C)C[C@H](N(C)C)[C@H]2Oc2ccc(F)cc2)[C@](C)(O)C[C@@H](C)CN[C@H](C)[C@@H](O)[C@]1(C)O [Example E-116]	5.30	16	5.00
CC[C@H]1OC(=O)[C@H](C)[C@@H](O[C@H]2C[C@@](C)(OC)[C@](O)(CNC(C)C)[C@H](C)O2)[C@H](C)[C@@H](O[C@@H]2O[C@H](C)C[C@H](N(C)C)[C@H]2Oc2ccc(F)cc2)[C@](C)(O)C[C@@H](C)CN[C@H](C)[C@@H](O)[C@]1(C)O [Example E-117]	5.22	16	4.96
CC[C@H]1OC(=O)[C@H](C)[C@@H](O[C@H]2C[C@@](C)(OC)[C@](O)(CNC3CCOCC3)[C@H](C)O2)[C@H](C)[C@@H](O[C@@H]2O[C@H](C)C[C@H](N(C)C)[C@H]2Oc2ccccc2)[C@](C)(O)C[C@@H](C)CN[C@H](C)[C@@H](O)[C@]1(C)O [Example E-120]	5.10	16	4.96
CC[C@H]1OC(=O)[C@H](C)[C@@H](O[C@H]2C[C@@](C)(OC)[C@](O)(CNC3CC3)[C@H](C)O2)[C@H](C)[C@@H](O[C@@H]2O[C@H](C)C[C@H](NC)[C@H]2Oc2ccccc2)[C@](C)(O)C[C@@H](C)CN[C@H](C)[C@@H](O)[C@]1(C)O [Example E-125]	5.30	16	5.10
CC[C@H]1OC(=O)[C@H](C)[C@@H](O[C@H]2C[C@@](C)(OC)[C@](O)(CNC(C)C)[C@H](C)O2)[C@H](C)[C@@H](O[C@@H]2O[C@H](C)C[C@H](NC)[C@H]2Oc2ccccc2)[C@](C)(O)C[C@@H](C)CN[C@H](C)[C@@H](O)[C@]1(C)O [Example E-127]	4.72	40	4.36
CC[C@H]1OC(=O)[C@H](C)[C@@H](O[C@H]2C[C@@](C)(OC)[C@](O)(CN(C)CCN(C)C)[C@H](C)O2)[C@H](C)[C@@H](O[C@@H]2O[C@H](C)C[C@H](NC)[C@H]2Oc2ccccc2)[C@](C)(O)C[C@@H](C)CN[C@H](C)[C@@H](O)[C@]1(C)O [Example E-128]	4.00	100	3.83
CC[C@H]1OC(=O)[C@H](C)[C@@H](O[C@H]2C[C@@](C)(OC)[C@](O)(CNCCOC)[C@H](C)O2)[C@H](C)[C@@H](O[C@@H]2O[C@H](C)C[C@H](NC)[C@H]2Oc2ccccc2)[C@](C)(O)C[C@@H](C)CN[C@H](C)[C@@H](O)[C@]1(C)O [Example E-130]	4.49	40	4.15
CC[C@H]1OC(=O)[C@H](C)[C@@H](O[C@H]2C[C@@](C)(OC)[C@](O)(CNCCCOC)[C@H](C)O2)[C@H](C)[C@@H](O[C@@H]2O[C@H](C)C[C@H](NC)[C@H]2Oc2ccccc2)[C@](C)(O)C[C@@H](C)CN[C@H](C)[C@@H](O)[C@]1(C)O [Example E-131]	4.46	100	4.28
CC[C@H]1OC(=O)[C@H](C)[C@@H](O[C@H]2C[C@@](C)(OC)[C@](O)(CNCC3CC3)[C@H](C)O2)[C@H](C)[C@@H](O[C@@H]2O[C@H](C)C[C@H](NC)[C@H]2Oc2ccccc2)[C@](C)(O)C[C@@H](C)CN[C@H](C)[C@@H](O)[C@]1(C)O [Example E-132]	4.51	100	4.22
CC[C@H]1OC(=O)[C@H](C)[C@@H](O[C@H]2C[C@@](C)(OC)[C@](O)(CNn3ccnc3)[C@H](C)O2)[C@H](C)[C@@H](O[C@@H]2O[C@H](C)C[C@H](NC)[C@H]2Oc2ccccc2)[C@](C)(O)C[C@@H](C)CN[C@H](C)[C@@H](O)[C@]1(C)O [Example E-138]	4.32	40	4.06
CC[C@H]1OC(=O)[C@H](C)[C@@H](O[C@H]2C[C@@](C)(OC)[C@](O)(CNC3CCC3)[C@H](C)O2)[C@H](C)[C@@H](O[C@@H]2O[C@H](C)C[C@H](N(C)C)[C@H]2Oc2ccccc2)[C@](C)(O)C[C@@H](C)CN[C@H](C)[C@@H](O)[C@]1(C)O [Example E-141]	5.15	16	4.72
CC[C@H]1OC(=O)[C@H](C)[C@@H](O[C@H]2C[C@@](C)(OC)[C@](O)(CNC(C)C)[C@H](C)O2)[C@H](C)[C@@H](O[C@@H]2O[C@H](C)C[C@H](N(C)C)[C@H]2Oc2ccccc2)[C@](C)(O)C[C@@H](C)CN[C@H](C)[C@@H](O)[C@]1(C)O [Example E-142]	5.40	16	4.74
CC[C@H]1OC(=O)[C@H](C)[C@@H](O[C@H]2C[C@@](C)(OC)[C@](O)(CN(C)CCN(C)C)[C@H](C)O2)[C@H](C)[C@@H](O[C@@H]2O[C@H](C)C[C@H](N(C)C)[C@H]2Oc2ccccc2)[C@](C)(O)C[C@@H](C)CN[C@H](C)[C@@H](O)[C@]1(C)O [Example E-143]	4.47	40	4.07
CC[C@H]1OC(=O)[C@H](C)[C@@H](O[C@H]2C[C@@](C)(OC)[C@](O)(CNCCN(C)C)[C@H](C)O2)[C@H](C)[C@@H](O[C@@H]2O[C@H](C)C[C@H](N(C)C)[C@H]2Oc2ccccc2)[C@](C)(O)C[C@@H](C)CN[C@H](C)[C@@H](O)[C@]1(C)O [Example E-144]	5.10	40	4.06
CC[C@H]1OC(=O)[C@H](C)[C@@H](O[C@H]2C[C@@](C)(OC)[C@](O)(CNCCOC)[C@H](C)O2)[C@H](C)[C@@H](O[C@@H]2O[C@H](C)C[C@H](N(C)C)[C@H]2Oc2ccccc2)[C@](C)(O)C[C@@H](C)CN[C@H](C)[C@@H](O)[C@]1(C)O [Example E-145]	4.77	>250	4.38
CC[C@H]1OC(=O)[C@H](C)[C@@H](O[C@H]2C[C@@](C)(OC)[C@](O)(CNCCCOC)[C@H](C)O2)[C@H](C)[C@@H](O[C@@H]2O[C@H](C)C[C@H](N(C)C)[C@H]2Oc2ccccc2)[C@](C)(O)C[C@@H](C)CN[C@H](C)[C@@H](O)[C@]1(C)O [Example E-146]	4.92	40	4.35
CCCNC[C@]1(O)[C@H](C)O[C@@H](O[C@H]2[C@H](C)[C@@H](O[C@@H]3O[C@H](C)C[C@H](N(C)Cc4ccc(OC)cc4)[C@H]3Oc3ccccc3)[C@](C)(O)C[C@@H](C)CN[C@H](C)[C@@H](O)[C@](C)(O)[C@@H](CC)OC(=O)[C@@H]2C)C[C@@]1(C)OC [Example E-147]	5.22	4	5.30
CCCNC[C@]1(O)[C@H](C)O[C@@H](O[C@H]2[C@H](C)[C@@H](O[C@@H]3O[C@H](C)C[C@H](N(C)Cc4ccccc4)[C@H]3Oc3ccccc3)[C@](C)(O)C[C@@H](C)CN[C@H](C)[C@@H](O)[C@](C)(O)[C@@H](CC)OC(=O)[C@@H]2C)C[C@@]1(C)OC [Example E-148]	5.70	1	6.00
CCCNC[C@]1(O)[C@H](C)O[C@@H](O[C@H]2[C@H](C)[C@@H](O[C@@H]3O[C@H](C)C[C@H](N(C)Cc4cccnc4)[C@H]3Oc3ccccc3)[C@](C)(O)C[C@@H](C)CN[C@H](C)[C@@H](O)[C@](C)(O)[C@@H](CC)OC(=O)[C@@H]2C)C[C@@]1(C)OC [Example E-149]	5.00	2	5.22
CCCNC[C@]1(O)[C@H](C)O[C@@H](O[C@H]2[C@H](C)[C@@H](O[C@@H]3O[C@H](C)C[C@H](N(C)Cc4nccs4)[C@H]3Oc3ccccc3)[C@](C)(O)C[C@@H](C)CN[C@H](C)[C@@H](O)[C@](C)(O)[C@@H](CC)OC(=O)[C@@H]2C)C[C@@]1(C)OC [Example E-150]	5.22	1	5.52
CCCNC[C@]1(O)[C@H](C)O[C@@H](O[C@H]2[C@H](C)[C@@H](O[C@@H]3O[C@H](C)C[C@H](NC)[C@H]3Oc3ccc(OC)cc3)[C@](C)(O)C[C@@H](C)CN(C)[C@H](C)[C@@H](O)[C@](C)(O)[C@@H](CC)OC(=O)[C@@H]2C)C[C@@]1(C)OC [Example E-151]	4.64	16	4.64
CCCNC[C@]1(O)[C@H](C)O[C@@H](O[C@H]2[C@H](C)[C@@H](O[C@@H]3O[C@H](C)C[C@H](NC)[C@H]3Oc3ccccc3)[C@](C)(O)C[C@@H](C)CN(C)[C@H](C)[C@@H](O)[C@](C)(O)[C@@H](CC)OC(=O)[C@@H]2C)C[C@@]1(C)OC [Example E-152]	4.64	16	4.68
CCCNC[C@]1(O)[C@H](C)O[C@@H](O[C@H]2[C@H](C)[C@@H](O[C@@H]3O[C@H](C)C[C@H](NC)[C@H]3Oc3ccc(F)cc3)[C@](C)(O)C[C@@H](C)CN(C)[C@H](C)[C@@H](O)[C@](C)(O)[C@@H](CC)OC(=O)[C@@H]2C)C[C@@]1(C)OC [Example E-153]	4.68	16	4.74
CCCNC[C@]1(O)[C@H](C)O[C@@H](O[C@H]2[C@H](C)[C@@H](O[C@@H]3O[C@H](C)C[C@H](NC4CCCCC4)[C@H]3Oc3ccccc3)[C@](C)(O)C[C@@H](C)CN[C@H](C)[C@@H](O)[C@](C)(O)[C@@H](CC)OC(=O)[C@@H]2C)C[C@@]1(C)OC [Example E-154]	5.30	1	5.40
